Measured values reported in patent US11058678B2 (Enanta Pharmaceuticals, Inc., priority 2018, dated 2021).
pEC50: −log10 of the molar value.

Tests used:
[1] = system: HBV (2.2.15 cells); experiment: Antiviral activity in 2.2.15 cells: reduction of viral product accumulation (qPCR of lysates, HBsAg or HBeAg ELISA); type: cell-based, hepatitis B virus (HBV); details: Hepatitis B virus, 120 h, day 5 post treatment, 50% reduction of viral product accumulation in lysates or supernatants vs no drug controls, readout (qPCR, HBsAg, HBeAg) not specified
Method in brief: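 HBV-producing 2.2.15 cells, 35,000/well, treated with 5-fold serial compound dilutions at 0.5% final DMSO for 5 days. Lysate HBV DNA by qPCR or supernatant HBsAg/HBeAg by ELISA; EC50 is 50% reduction versus no-drug control, binned A<0.1 μM, B 0.1-1 μM, C>1 μM.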

[2] = Compound induced cellular toxicity in HepG2 cells (ATPlite 1 Step); type: cell-based; details: human, three days, 50% reduction of total ATP levels vs no drug controls
Protocol: At day 3, post seeding cells are treated with ATPlite 1 Step according to the manufacturer's instructions.

COCCCOc1cc2c(cc1-c1cccs1)-c1cc(=O)c(C(=O)O)cn1[C@H](C(C)(C)C)C2 [Example 8, (S)-6-(tert-butyl)-9-(3-methoxypropoxy)-2-oxo-10-(thiophen-2-yl)-6,7-dihydro-2H-pyrido[2,1-a]isoquinoline-3-carboxylic Acid]
pEC50 [1]: > 7.00 | CC50 at 3 days [2]: 10 to 25 µM

COCCCOc1cc2c(cc1-c1cccc(F)c1F)-c1cc(=O)c(C(=O)O)cn1[C@H](C(C)(C)C)C2 [Example 23, (S)-6-(tert-butyl)-10-(2,3-difluorophenyl)-9-(3-methoxypropoxy)-2-oxo-6,7-dihydro-2H-pyrido[2,1-a]isoquinoline-3-carboxylic Acid]
pEC50 [1]: 6.00 to 7.00 | CC50 at 3 days [2]: > 25 µM

COCCCOc1cc2c(cc1-c1cnc3ccccc3c1)-c1cc(=O)c(C(=O)O)cn1[C@H](C(C)(C)C)C2 [Example 12, (S)-6-(tert-butyl)-9-(3-methoxypropoxy)-2-oxo-10-(quinolin-3-yl)-6,7-dihydro-2H-pyrido[2,1-a]isoquinoline-3-carboxylic Acid]
pEC50 [1]: > 7.00 | CC50 at 3 days [2]: > 25 µM

COCCCOc1cc2c(cc1-c1nc(C(F)(F)F)co1)-c1cc(=O)c(C(=O)O)cn1[C@H](C(C)(C)C)C2 [Example 26, (S)-6-(tert-butyl)-9-(3-methoxypropoxy)-2-oxo-10-(4-(trifluoromethyl)oxazol-2-yl)-6,7-dihydro-2H-pyrido[2,1-a]isoquinoline-3-carboxylic Acid]
pEC50 [1]: 6.00 to 7.00 | CC50 at 3 days [2]: > 25 µM

CC(C)(C)[C@@H]1Cc2c(cc(N3CC(F)(F)C3)c3c2CCO3)-c2cc(=O)c(C(=O)O)cn21 [Example 30, (S)-5-(tert-butyl)-12-(3,3-difluoroazetidin-1-yl)-9-oxo-2,3,4,9-tetrahydro-5H-furo[3,2-f]pyrido[2,1-a]isoquinoline-8-carboxylic Acid]
pEC50 [1]: > 7.00 | CC50 at 3 days [2]: > 25 µM

COCCCOc1cc2c(cc1-c1ccc(F)cc1)-c1cc(=O)c(C(=O)O)cn1[C@H](C(C)(C)C)C2 [Example 15, (S)-6-(tert-butyl)-10-(4-fluorophenyl)-9-(3-methoxypropoxy)-2-oxo-6,7-dihydro-2H-pyrido[2,1-a]isoquinoline-3-carboxylic Acid]
pEC50 [1]: > 7.00 | CC50 at 3 days [2]: 10 to 25 µM

CC(C)(C)[C@@H]1Cc2c(cc(-c3ccc(F)cc3)c3c2CCO3)-c2cc(=O)c(C(=O)O)cn21 [Example 62, (S)-5-(tert-butyl)-12-(4-fluorophenyl)-9-oxo-2,3,4,9-tetrahydro-5H-furo[3,2-f]pyrido[2,1-a]isoquinoline-8-carboxylic Acid]
pEC50 [1]: > 7.00 | CC50 at 3 days [2]: < 10 µM

COc1cccc(-c2cc3c(c4c2OCC4)C[C@@H](C(C)(C)C)n2cc(C(=O)O)c(=O)cc2-3)c1 [Example 79, (S)-5-(tert-butyl)-12-(3-methoxyphenyl)-9-oxo-2,3,4,9-tetrahydro-5H-furo[3,2-f]pyrido[2,1-a]isoquinoline-8-carboxylic Acid]
pEC50 [1]: > 7.00 | CC50 at 3 days [2]: < 10 µM

COCCCOc1cc2c(cc1-c1ccoc1)-c1cc(=O)c(C(=O)O)cn1[C@H]1[C@@H]2CCC1(C)C [Example 60, (3aS,12bR)-10-(furan-3-yl)-11-(3-methoxypropoxy)-3,3-dimethyl-7-oxo-1,2,3,3a,7,12b-hexahydrocyclopenta[c]pyrido[2,1-a]isoquinoline-6-carboxylic Acid]
pEC50 [1]: > 7.00 | CC50 at 3 days [2]: 10 to 25 µM

COCCCOc1cc2c(cc1-c1ccc(F)cc1)-c1cc(=O)c(C(=O)O)cn1[C@H]1[C@@H]2COC1(C)C [Example 61, (3aS,12bR)-10-(4-fluorophenyl)-11-(3-methoxypropoxy)-3,3-dimethyl-7-oxo-3,3a,7,12b-tetrahydro-1H-furo[3,4-c]pyrido[2,1-a]isoquinoline-6-carboxylic Acid]
pEC50 [1]: > 7.00 | CC50 at 3 days [2]: > 25 µM

C[C@H]1Cc2c3c(cc(-c4ccoc4)c2O1)-c1cc(=O)c(C(=O)O)cn1[C@H](C(C)(C)C)C3 [Example 132, (2S,5S)-5-(tert-butyl)-12-(furan-3-yl)-2-methyl-9-oxo-2,3,4,9-tetrahydro-5H-furo[3,2-f]pyrido[2,1-a]isoquinoline-8-carboxylic Acid]
pEC50 [1]: > 7.00 | CC50 at 3 days [2]: < 10 µM

COCCCOc1cc2c(cc1-c1nc3ccccc3o1)-c1cc(=O)c(C(=O)O)cn1[C@H](C(C)(C)C)C2 [Example 25, (S)-10-(benzo[d]oxazol-2-yl)-6-(tert-butyl)-9-(3-methoxypropoxy)-2-oxo-6,7-dihydro-2H-pyrido[2,1-a]isoquinoline-3-carboxylic Acid]
pEC50 [1]: 6.00 to 7.00 | CC50 at 3 days [2]: > 25 µM

COCCCOc1cc2c(cc1-c1ccccc1)-c1cc(=O)c(C(=O)O)cn1[C@H](C(C)(C)C)C2 [Example 3, (S)-6-(tert-butyl)-9-(3-methoxypropoxy)-2-oxo-10-phenyl-6,7-dihydro-2H-pyrido[2,1-a]isoquinoline-3-carboxylic Acid]
pEC50 [1]: > 7.00 | CC50 at 3 days [2]: < 10 µM

COCCCOc1cc2c(cc1-c1ccccc1F)-c1cc(=O)c(C(=O)O)cn1[C@H](C(C)(C)C)C2 [Example 13, (S)-6-(tert-butyl)-10-(2-fluorophenyl)-9-(3-methoxypropoxy)-2-oxo-6,7-dihydro-2H-pyrido[2,1-a]isoquinoline-3-carboxylic Acid]
pEC50 [1]: > 7.00 | CC50 at 3 days [2]: 10 to 25 µM

COCCCOc1cc2c(cc1-c1cccc(OC)c1)-c1cc(=O)c(C(=O)O)cn1[C@H](C(C)(C)C)C2 [Example 16, (S)-6-(tert-butyl)-10-(3-methoxyphenyl)-9-(3-methoxypropoxy)-2-oxo-6,7-dihydro-2H-pyrido[2,1-a]isoquinoline-3-carboxylic Acid]
pEC50 [1]: > 7.00 | CC50 at 3 days [2]: 10 to 25 µM

COCCCOc1cc2c(cc1-c1ccc3c(c1)OCCN3C)-c1cc(=O)c(C(=O)O)cn1[C@H](C(C)(C)C)C2 [Example 24, (S)-6-(tert-butyl)-9-(3-methoxypropoxy)-10-(4-methyl-3,4-dihydro-2H-benzo[b][1,4]oxazin-7-yl)-2-oxo-6,7-dihydro-2H-pyrido[2,1-a]isoquinoline-3-carboxylic Acid]
pEC50 [1]: 6.00 to 7.00 | CC50 at 3 days [2]: > 25 µM

COCCCOc1cc2c(cc1-c1ccc(F)cc1F)-c1cc(=O)c(C(=O)O)cn1[C@H](C(C)(C)C)C2 [Example 22, (S)-6-(tert-butyl)-10-(2,4-difluorophenyl)-9-(3-methoxypropoxy)-2-oxo-6,7-dihydro-2H-pyrido[2,1-a]isoquinoline-3-carboxylic Acid]
pEC50 [1]: 6.00 to 7.00 | CC50 at 3 days [2]: > 25 µM

COCCCOc1cc2c(cc1-c1coc3ccccc13)-c1cc(=O)c(C(=O)O)cn1[C@H](C(C)(C)C)C2 [Example 10, (S)-10-(benzofuran-3-yl)-6-(tert-butyl)-9-(3-methoxypropoxy)-2-oxo-6,7-dihydro-2H-pyrido[2,1-a]isoquinoline-3-carboxylic Acid]
pEC50 [1]: > 7.00 | CC50 at 3 days [2]: > 25 µM

COCCCOc1cc2c(cc1-c1ccoc1)-c1cc(=O)c(C(=O)O)cn1[C@H](C(C)(C)C)C2 [Example 2, (S)-6-(tert-butyl)-10-(furan-3-yl)-9-(3-methoxypropoxy)-2-oxo-6,7-dihydro-2H-pyrido[2,1-a]isoquinoline-3-carboxylic Acid]
pEC50 [1]: > 7.00 | CC50 at 3 days [2]: > 25 µM

COCCCOc1cc2c(cc1-c1cccc(F)c1)-c1cc(=O)c(C(=O)O)cn1[C@H](C(C)(C)C)C2 [Example 14, (S)-6-(tert-butyl)-10-(3-fluorophenyl)-9-(3-methoxypropoxy)-2-oxo-6,7-dihydro-2H-pyrido[2,1-a]isoquinoline-3-carboxylic Acid]
pEC50 [1]: > 7.00 | CC50 at 3 days [2]: 10 to 25 µM

CC(C)(C)[C@@H]1Cc2c(cc(-c3ccccc3)c3c2CCO3)-c2cc(=O)c(C(=O)O)cn21 [Example 67, (S)-5-(tert-butyl)-9-oxo-12-phenyl-2,3,4,9-tetrahydro-5H-furo[3,2-f]pyrido[2,1-a]isoquinoline-8-carboxylic Acid]
pEC50 [1]: > 7.00 | CC50 at 3 days [2]: < 10 µM

COCCCOc1cc2c(cc1-c1ccnn1C)-c1cc(=O)c(C(=O)O)cn1[C@H](C(C)(C)C)C2 [Example 18, (S)-6-(tert-butyl)-9-(3-methoxypropoxy)-10-(1-methyl-1H-pyrazol-5-yl)-2-oxo-6,7-dihydro-2H-pyrido[2,1-a]isoquinoline-3-carboxylic Acid]
pEC50 [1]: > 7.00 | CC50 at 3 days [2]: > 25 µM

COCCCOc1cc2c(cc1-c1cn[nH]c1)-c1cc(=O)c(C(=O)O)cn1[C@H]1[C@@H]2COC1(C)C [Example 135, (3aS,12bR)-11-(3-methoxypropoxy)-3,3-dimethyl-7-oxo-10-(1H-pyrazol-4-yl)-3,3a,7,12b-tetrahydro-1H-furo[3,4-c]pyrido[2,1-a]isoquinoline-6-carboxylic Acid]
pEC50 [1]: > 7.00

CC1(C)Cc2c3c(cc(-c4ccco4)c2O1)-c1cc(=O)c(C(=O)O)cn1[C@H](C(C)(C)C)C3 [Example 148, (S)-5-(tert-butyl)-12-(furan-2-yl)-2,2-dimethyl-9-oxo-2,3,4,9-tetrahydro-5H-furo[3,2-f]pyrido[2,1-a]isoquinoline-8-carboxylic Acid]
pEC50 [1]: < 6.00

COCCCOc1cc2c(cc1-c1cccs1)-c1cc(=O)c(C(=O)O)cn1[C@H]1[C@@H]2COC1(C)C [Example 142, (3aS,12bR)-11-(3-methoxypropoxy)-3,3-dimethyl-7-oxo-10-(thiophen-2-yl)-3,3a,7,12b-tetrahydro-1H-furo[3,4-c]pyrido[2,1-a]isoquinoline-6-carboxylic Acid]
pEC50 [1]: > 7.00

CC(C)[C@@H]1Cc2c(cc(-c3ccn(C)n3)c3c2CCO3)-c2cc(=O)c(C(=O)O)cn21 [Example 98, (S)-5-isopropyl-12-(1-methyl-1H-pyrazol-3-yl)-9-oxo-2,3,4,9-tetrahydro-5H-furo[3,2-f]pyrido[2,1-a]isoquinoline-8-carboxylic Acid]
pEC50 [1]: < 6.00
